Conditions: 358.16 K, Fluid (supercritical or subcritical phases), Vibrating tube method

FC(F)=C(F)C(F)(F)F [hexafluoropropene]
Conditions | mass density [kg/m3]
6.7 kPa | 0.18
7.2 kPa | 0.21
7.5 kPa | 0.23
7.7 kPa | 0.26
8.5 kPa | 0.27
8.8 kPa | 0.31
9.2 kPa | 0.32
9.8 kPa | 0.34
12.4 kPa | 0.45
13.4 kPa | 0.5
14.5 kPa | 0.6
15.5 kPa | 0.63
16.5 kPa | 0.69
17.6 kPa | 0.76
19.6 kPa | 0.84
20.7 kPa | 0.88
21.7 kPa | 0.92
22.7 kPa | 1.01
23.9 kPa | 1.07
25.9 kPa | 1.13
26.9 kPa | 1.2
27.9 kPa | 1.24
29 kPa | 1.31
30 kPa | 1.37
31 kPa | 1.42
32 kPa | 1.45
33 kPa | 1.5
34 kPa | 1.62
35.1 kPa | 1.63
36.1 kPa | 1.72
39.1 kPa | 1.8
40.1 kPa | 1.85
41.2 kPa | 1.9
42.2 kPa | 1.99
45.3 kPa | 2.13
52.2 kPa | 2.54
58.8 kPa | 2.84
65.5 kPa | 3.31
72.2 kPa | 3.58
79 kPa | 3.91
85.8 kPa | 4.34
92.6 kPa | 4.61
99.4 kPa | 4.96
115.5 kPa | 5.84
124.6 kPa | 6.23
133.8 kPa | 6.76
142.9 kPa | 7.23
152 kPa | 7.73
161.1 kPa | 8.2
170.1 kPa | 8.69
179.2 kPa | 9.15
188.3 kPa | 9.64
197.2 kPa | 10.14
201.8 kPa | 10.33
215.2 kPa | 11.03
228.6 kPa | 11.76
241.9 kPa | 12.39
255.2 kPa | 13.18
268.5 kPa | 13.87
281.6 kPa | 14.57
295.2 kPa | 15.37
308.9 kPa | 16.07
323.1 kPa | 16.83
337.5 kPa | 17.58
352.1 kPa | 18.44
366.8 kPa | 19.21
381.5 kPa | 19.95
396.2 kPa | 20.78
411 kPa | 21.59
427.6 kPa | 22.57
444 kPa | 23.52
460.4 kPa | 24.33
476.7 kPa | 25.35
492.9 kPa | 26.26
509.2 kPa | 27.13
525.3 kPa | 28.12
541.5 kPa | 29.02
557.6 kPa | 29.96
575.1 kPa | 31
592.7 kPa | 31.99
610.1 kPa | 32.94
627.5 kPa | 34
645.1 kPa | 35.06
663.8 kPa | 36.18
682.3 kPa | 37.25
700.8 kPa | 38.41
719.1 kPa | 39.53
737.3 kPa | 40.62
755.2 kPa | 41.68
773.2 kPa | 42.77
791.1 kPa | 43.9
808.6 kPa | 44.92
843.9 kPa | 47.16
861.2 kPa | 48.3
878.4 kPa | 49.34
895.4 kPa | 50.38
912.3 kPa | 51.52
929.2 kPa | 52.65
945.9 kPa | 53.68
964.1 kPa | 54.95
981.4 kPa | 56.09
999 kPa | 57.2
1004 kPa | 57.55
1037.2 kPa | 59.89
1056.7 kPa | 61.12
1079.5 kPa | 62.72
1113.6 kPa | 65.06
1151.3 kPa | 67.79
1177.8 kPa | 69.69
1204.6 kPa | 71.61
1231.5 kPa | 73.4
1251 kPa | 74.95
1277.5 kPa | 76.93
1297.2 kPa | 78.23
1318.3 kPa | 79.8
1351 kPa | 82.19
1384.5 kPa | 84.6
1419.6 kPa | 87.38
1453.8 kPa | 89.96
1487.2 kPa | 92.64
1522.4 kPa | 95.5
1557 kPa | 98.35
1592 kPa | 101.11
1624.7 kPa | 103.88
1659.3 kPa | 106.85
1677.7 kPa | 108.37
1712.3 kPa | 111.38
1748.1 kPa | 114.59
1780.9 kPa | 117.54
1815.7 kPa | 120.8
1848.2 kPa | 123.82
1883.1 kPa | 127.18
1916.7 kPa | 130.47

— the NIST ThermoML archive (doi:10.1021/je900596d)
